Laboratory results reported in US10865211B2 (ENANTA PHARMACEUTICALS, INC, priority 2018, dated 2020).

What was measured:
[1] = Compound induced cellular toxicity in HepG2 cells (ATPlite); assay type: cell-based; details: human, three days, ATPlite 1 Step, concentration reducing total ATP levels by 50% relative to no drug controls
Method: At day 3, post seeding cells are treated with ATPlite 1 Step according to the manufacturer's instructions.

[2] = tested on: 2.2.15 cells; test: Antiviral activity in 2.2.15 cells: reduction of viral product accumulation (qPCR, HBsAg/HBeAg ELISA); assay type: cell-based, HBV; details: Hepatitis B virus, 120 h, day 5 post treatment, concentration reducing viral product accumulation in cell lysates or supernatants by 50% relative to no drug controls
Method: 2.2.15 cells are passaged upon attaining confluency in DMEM/F12 media in the presence of 10% FBS, Penn/Strep, and 250 ug/mL G418. Novel compounds are 5 fold serially diluted in DMSO and added to 96 well plates containing 35,000 cells/well at a 1:200 dilution so that the final concentration of DMSO is 0.5%. On day 5, post treatment cell lysates and supernatants are harvested for analysis.
Cells are lysed using Agilent Sidestep Lysis buffer, diluted 1:100 and quantified via quantitative real time PCR. Commercially available ELISA kits are used to quantitate the viral proteins HBsAg (Alpco) or HBeAg (US Biological) by following the manufacturer's recommended protocol after diluting samples to match the linear range of their respective assays. Irrespective of readout, compound concentrations that reduce viral product accumulation in the cell lysates or supernatants by 50% relative to no drug controls (EC50) are reported; EC50 ranges are as follows: A<0.1 μM; B 0.1-1 μM; C>1 μM.

CC(C)(C)[C@@H]1Cc2c(oc3c(-c4cnco4)cccc23)-c2c(F)c(=O)c(C(=O)O)cn21 [Example 58, (S)-6-(tert-butyl)-1-fluoro-11-(oxazol-5-yl)-2-oxo-6,7-dihydro-2H-benzofuro[2,3-a]quinolizine-3-carboxylic acid]
CC50 at 3 days [1]: > 25 µM | EC50 [2]: < 0.1 µM

Cn1nccc1-c1cccc2c3c(oc12)-c1c(F)c(=O)c(C(=O)O)cn1[C@H](C(C)(C)C)C3 [Example 59, (S)-6-(tert-butyl)-1-fluoro-11-(1-methyl-1H-pyrazol-5-yl)-2-oxo-6,7-dihydro-2H-benzofuro[2,3-a]quinolizine-3-carboxylic acid]
CC50 at 3 days [1]: > 25 µM | EC50 [2]: < 0.1 µM

CC(C)(C)[C@@H]1Cc2c(oc3c(-c4nccs4)cccc23)-c2c(F)c(=O)c(C(=O)O)cn21 [Example 61, (S)-6-(tert-butyl)-1-fluoro-2-oxo-11-(thiazol-2-yl)-6,7-dihydro-2H-benzofuro[2,3-a]quinolizine-3-carboxylic acid]
CC50 at 3 days [1]: > 25 µM | EC50 [2]: < 0.1 µM

CC(C)(C)[C@@H]1Cc2c(oc3c(-c4cscn4)cccc23)-c2c(F)c(=O)c(C(=O)O)cn21 [Example 62, (S)-6-(tert-butyl)-1-fluoro-2-oxo-11-(thiazol-4-yl)-6,7-dihydro-2H-benzofuro[2,3-a]quinolizine-3-carboxylic acid]
CC50 at 3 days [1]: 10 to 25 µM | EC50 [2]: < 0.1 µM

CC(C)(C)[C@@H]1Cc2c(oc3c(-n4cccn4)cccc23)-c2c(F)c(=O)c(C(=O)O)cn21 [Example 63, (S)-6-(tert-butyl)-1-fluoro-2-oxo-11-(1H-pyrazol-1-yl)-6,7-dihydro-2H-benzofuro[2,3-a]quinolizine-3-carboxylic acid]
CC50 at 3 days [1]: > 25 µM | EC50 [2]: < 0.1 µM

Cc1cccc2c3c(oc12)-c1c(F)c(=O)c(C(=O)O)cn1[C@H](C(C)(C)C)C3 [Example 64, (S)-6-(tert-butyl)-1-fluoro-11-methyl-2-oxo-6,7-dihydro-2H-benzofuro[2,3-a]quinolizine-3-carboxylic acid]
CC50 at 3 days [1]: > 25 µM | EC50 [2]: < 0.1 µM

CC(C)(C)[C@@H]1Cc2c(oc3c(C4CC4)cccc23)-c2c(F)c(=O)c(C(=O)O)cn21 [Example 65, (S)-6-(tert-butyl)-11-cyclopropyl-1-fluoro-2-oxo-6,7-dihydro-2H-benzofuro[2,3-a]quinolizine-3-carboxylic acid]
CC50 at 3 days [1]: > 25 µM | EC50 [2]: < 0.1 µM

CC(C)[C@@H]1Cc2c(oc3c(-c4ccoc4)cccc23)-c2cc(=O)c(C(=O)O)cn21 [Example 66, (S)-11-(furan-3-yl)-6-isopropyl-2-oxo-6,7-dihydro-2H-benzofuro[2,3-a]quinolizine-3-carboxylic acid]
CC50 at 3 days [1]: 10 to 25 µM | EC50 [2]: < 0.1 µM

CC(C)[C@@H]1Cc2c(oc3c(-c4ccco4)cccc23)-c2cc(=O)c(C(=O)O)cn21 [Example 67, (S)-11-(furan-2-yl)-6-isopropyl-2-oxo-6,7-dihydro-2H-benzofuro[2,3-a]quinolizine-3-carboxylic acid]
CC50 at 3 days [1]: 10 to 25 µM | EC50 [2]: < 0.1 µM

CC(C)[C@@H]1Cc2c(oc3cc(OC(F)F)ccc23)-c2cc(=O)c(C(=O)O)cn21 [Example 68, (S)-10-(difluoromethoxy)-6-isopropyl-2-oxo-6,7-dihydro-2H-benzofuro[2,3-a]quinolizine-3-carboxylic acid]
CC50 at 3 days [1]: < 10 µM | EC50 [2]: < 0.1 µM

CC(C)[C@@H]1Cc2c(oc3cc(C#N)ccc23)-c2cc(=O)c(C(=O)O)cn21 [Example 69, (S)-10-cyano-6-isopropyl-2-oxo-6,7-dihydro-2H-benzofuro[2,3-a]quinolizine-3-carboxylic acid]
CC50 at 3 days [1]: > 25 µM | EC50 [2]: < 0.1 µM

CC(C)[C@@H]1Cc2c(oc3c(-c4cnsc4)cccc23)-c2cc(=O)c(C(=O)O)cn21 [Example 70, (S)-6-isopropyl-11-(isothiazol-4-yl)-2-oxo-6,7-dihydro-2H-benzofuro[2,3-a]quinolizine-3-carboxylic acid]
CC50 at 3 days [1]: > 25 µM | EC50 [2]: < 0.1 µM

CC(C)[C@@H]1Cc2c(oc3c(N4CCC(F)(F)C4)cccc23)-c2cc(=O)c(C(=O)O)cn21 [Example 71]
CC50 at 3 days [1]: < 10 µM | EC50 [2]: < 0.1 µM

CC(C)[C@@H]1Cc2c(oc3cc(-n4cccn4)ccc23)-c2cc(=O)c(C(=O)O)cn21 [Example 72, (S)-6-isopropyl-2-oxo-10-(1H-pyrazol-1-yl)-6,7-dihydro-2H-benzofuro[2,3-a]quinolizine-3-carboxylic acid]
CC50 at 3 days [1]: < 10 µM | EC50 [2]: < 0.1 µM

Cc1ccc2c3c(oc2c1)-c1cc(=O)c(C(=O)O)cn1[C@H](C(C)C)C3 [Example 73, (S)-6-isopropyl-10-methyl-2-oxo-6,7-dihydro-2H-benzofuro[2,3-a]quinolizine-3-carboxylic acid]
CC50 at 3 days [1]: > 25 µM | EC50 [2]: < 0.1 µM

CC(C)[C@@H]1Cc2c(oc3cc(C4CC4)ccc23)-c2cc(=O)c(C(=O)O)cn21 [Example 74, (S)-10-cyclopropyl-6-isopropyl-2-oxo-6,7-dihydro-2H-benzofuro[2,3-a]quinolizine-3-carboxylic acid]
CC50 at 3 days [1]: 10 to 25 µM | EC50 [2]: < 0.1 µM

CC(C)[C@@H]1Cc2c(oc3cc(-c4ccsc4)ccc23)-c2cc(=O)c(C(=O)O)cn21 [Example 76, (S)-6-isopropyl-2-oxo-10-(thiophen-3-yl)-6,7-dihydro-2H-benzofuro[2,3-a]quinolizine-3-carboxylic acid]
CC50 at 3 days [1]: > 25 µM | EC50 [2]: < 0.1 µM

CC(C)[C@@H]1Cc2c(oc3c(OC(F)F)cccc23)-c2cc(=O)c(C(=O)O)cn21 [Example 77, (S)-11-(difluoromethoxy)-6-isopropyl-2-oxo-6,7-dihydro-2H-benzofuro[2,3-a]quinolizine-3-carboxylic acid]
CC50 at 3 days [1]: > 25 µM | EC50 [2]: < 0.1 µM

CC(C)[C@@H]1Cc2c(oc3c(C#N)cccc23)-c2cc(=O)c(C(=O)O)cn21 [Example 78, (S)-11-cyano-6-isopropyl-2-oxo-6,7-dihydro-2H-benzofuro[2,3-a]quinolizine-3-carboxylic acid]
CC50 at 3 days [1]: > 25 µM | EC50 [2]: < 0.1 µM

CC(C)[C@@H]1Cc2c(oc3c(-c4cccs4)cccc23)-c2cc(=O)c(C(=O)O)cn21 [Example 79, (S)-6-isopropyl-2-oxo-11-(thiophen-2-yl)-6,7-dihydro-2H-benzofuro[2,3-a]quinolizine-3-carboxylic acid]
CC50 at 3 days [1]: < 10 µM | EC50 [2]: < 0.1 µM

CC(C)[C@@H]1Cc2c(oc3c(-c4ccsc4)cccc23)-c2cc(=O)c(C(=O)O)cn21 [Example 80, (S)-6-isopropyl-2-oxo-11-(thiophen-3-yl)-6,7-dihydro-2H-benzofuro[2,3-a]quinolizine-3-carboxylic acid]
CC50 at 3 days [1]: < 10 µM | EC50 [2]: < 0.1 µM

CC(C)[C@@H]1Cc2c(oc3c(-n4cccn4)cccc23)-c2cc(=O)c(C(=O)O)cn21 [Example 81, (S)-6-isopropyl-2-oxo-11-(1H-pyrazol-1-yl)-6,7-dihydro-2H-benzofuro[2,3-a]quinolizine-3-carboxylic acid]
CC50 at 3 days [1]: > 25 µM | EC50 [2]: < 0.1 µM

Cc1cccc2c3c(oc12)-c1cc(=O)c(C(=O)O)cn1[C@H](C(C)C)C3 [Example 82, (S)-6-isopropyl-11-methyl-2-oxo-6,7-dihydro-2H-benzofuro[2,3-a]quinolizine-3-carboxylic acid]
CC50 at 3 days [1]: > 25 µM | EC50 [2]: < 0.1 µM

CC(C)[C@@H]1Cc2c(oc3c(C4CC4)cccc23)-c2cc(=O)c(C(=O)O)cn21 [Example 83, (S)-11-cyclopropyl-6-isopropyl-2-oxo-6,7-dihydro-2H-benzofuro[2,3-a]quinolizine-3-carboxylic acid]
CC50 at 3 days [1]: < 10 µM | EC50 [2]: < 0.1 µM

CC(C)[C@@H]1Cc2c(oc3c(-c4cnco4)cccc23)-c2cc(=O)c(C(=O)O)cn21 [Example 84, (S)-6-isopropyl-11-(oxazol-5-yl)-2-oxo-6,7-dihydro-2H-benzofuro[2,3-a]quinolizine-3-carboxylic acid]
CC50 at 3 days [1]: > 25 µM | EC50 [2]: < 0.1 µM
